Data reported in patent US4876245A, “Fluorine-containing macrolide compounds and their use” (Daikin Industries Ltd., priority 1986, dated 1989).
Converted amounts (≈) assume the structure as drawn.

How the values were obtained:
Assay type in all cases: cell-based
Staphylococcus aureus = experiment: antimicrobial activity, agar streak method (MIC), aerobic gram-positive
Bacillus subtilis = experiment: as above
[1] = system: Fusobacterium necrophorum; experiment: antimicrobial activity, agar streak method (MIC), anaerobic
Neisseria gonorrhoeae = experiment: antimicrobial activity, agar streak method (MIC), aerobic gram-negative
Acholeplasma laidlawii = experiment: as above
Shigella sonnei = experiment: as above
Excerpt: The antimicrobial activities of 8,9-difluoroerythromycin 6,9-epoxide (Example 1), 8,9-difluoroerythromycin 6,9-epoxide 11,12-carbonate (Example 2) and 8,9-difluoroerythromycin 6,9-epoxide 11,12-sulfite (Example 4) are examined by an agar streak method and expressed in terms of minimal inhibitory concentrations (MIC, μg/ml) against the following bacteria.

Mycoplasma homilis = experiment: antimicrobial activity, agar streak method (MIC)
Salmonella typhi = experiment: antimicrobial activity, agar streak method (MIC), aerobic gram-negative; conditions: Salmonella enterica
Bacterioides fragilis = experiment: antimicrobial activity, agar streak method (MIC), anaerobic
Hemophilus influenzae = experiment: antimicrobial activity, agar streak method (MIC), aerobic gram-negative; conditions: Haemophilus influenzae
Pseudomonas aeruginosa = experiment: as above
[2] = system: Corynebacterium diphtheriae; experiment: antimicrobial activity, agar streak method (MIC), aerobic gram-positive
Micrococcus luteus = experiment: as above
Streptococcus pyogenes = experiment: as above
Streptococcus faecalis = experiment: as above; conditions: Enterococcus faecalis
Clostridium perfringens = experiment: microbe, parasite or virus in culture
Escherichia coli = experiment: antimicrobial activity, agar streak method (MIC), aerobic gram-negative
Bacillus natto = experiment: antimicrobial activity, agar streak method (MIC), aerobic gram-positive; conditions: Bacillus subtilis
Proteus vulgaris = experiment: antimicrobial activity, agar streak method (MIC), aerobic gram-negative
Streptococcus pneumoniae = experiment: antimicrobial activity, agar streak method (MIC), aerobic gram-positive

| SMILES | MIC (Staphylococcus aureus) [µg/mL] | MIC (Bacillus subtilis) [µg/mL] | MIC [1] [µg/mL] | MIC (Neisseria gonorrhoeae) [µg/mL] | MIC (Acholeplasma laidlawii) [µg/mL] | MIC (Shigella sonnei) [µg/mL] | MIC (Mycoplasma homilis) [µg/mL] | MIC (Salmonella typhi) [µg/mL] | MIC (Bacterioides fragilis) [µg/mL] | MIC (Hemophilus influenzae) [µg/mL] | MIC (Pseudomonas aeruginosa) [µg/mL] | MIC [2] [µg/mL] | MIC (Micrococcus luteus) [µg/mL] | MIC (Streptococcus pyogenes) [µg/mL] | MIC (Streptococcus faecalis) [µg/mL] | MIC (Clostridium perfringens) [µg/mL] | MIC (Escherichia coli) [µg/mL] | MIC (Bacillus natto) [µg/mL] | MIC (Proteus vulgaris) [µg/mL] | MIC (Streptococcus pneumoniae) [µg/mL] |
| --- | --- | --- | --- | --- | --- | --- | --- | --- | --- | --- | --- | --- | --- | --- | --- | --- | --- | --- | --- | --- |
| CC[C@H]1OC(=O)[C@H](C)[C@@H](O[C@H]2C[C@@](C)(OC)[C@@H](O)[C@H](C)O2)[C@H](C)[C@@H](O[C@@H]2O[C@H](C)C[C@H](N(C)C)[C@H]2O)[C@@]2(C)CC(C)(F)C(F)(O2)[C@H](C)[C@H]2OC(=O)O[C@@]21C (stereo partly drawn) [Example 2, 8,9-difluoroerythromycin A 6,9-epoxide 11,12-carbonate] | 0.156 (≈ 0.2 µM) | 0.049 (≈ 0.0628 µM) | 8 (≈ 10.3 µM) | 0.052 (≈ 0.0667 µM) | 0.2 (≈ 0.256 µM) | 12.5 (≈ 16 µM) | 25 (≈ 32.1 µM) | 13.2 (≈ 16.9 µM) | 0.84 (≈ 1.08 µM) | 7 (≈ 8.98 µM) | 26 (≈ 33.3 µM) | 0.022 (≈ 0.0282 µM) | 0.02 (≈ 0.0256 µM) | 0.011 (≈ 0.0141 µM) | 0.625 (≈ 0.801 µM) | 3.3 (≈ 4.23 µM) | 7.8 (≈ 10 µM) | 0.078 (≈ 0.1 µM) | 26 (≈ 33.3 µM) | 0.013 (≈ 0.0167 µM) |
| CC[C@H]1OC(=O)[C@H](C)[C@@H](O[C@H]2C[C@@](C)(OC)[C@@H](O)[C@H](C)O2)[C@H](C)[C@@H](O[C@@H]2O[C@H](C)C[C@H](N(C)C)[C@H]2O)[C@@]2(C)CC(C)(F)C(F)(O2)[C@H](C)[C@H]2OS(=O)O[C@@]21C (stereo partly drawn) [Example 4, 8,9-difluoroerythromycin A 6,9-epoxide 11,12-sulfite] | 0.156 (≈ 0.195 µM) | 0.049 (≈ 0.0613 µM) | 8 (≈ 10 µM) | 0.052 (≈ 0.065 µM) | 0.2 (≈ 0.25 µM) | 12.5 (≈ 15.6 µM) | 25 (≈ 31.3 µM) | 13.2 (≈ 16.5 µM) | 0.84 (≈ 1.05 µM) | 7 (≈ 8.75 µM) | 26 (≈ 32.5 µM) | 0.022 (≈ 0.0275 µM) | 0.02 (≈ 0.025 µM) | 0.011 (≈ 0.0138 µM) | 0.625 (≈ 0.781 µM) | 0.3 (≈ 0.375 µM) | 7.8 (≈ 9.75 µM) | 0.078 (≈ 0.0975 µM) | 26 (≈ 32.5 µM) | 0.013 (≈ 0.0163 µM) |
| CC[C@H]1OC(=O)[C@H](C)[C@@H](O[C@H]2C[C@@](C)(OC)[C@@H](O)[C@H](C)O2)[C@H](C)[C@@H](O[C@@H]2O[C@H](C)C[C@H](N(C)C)[C@H]2O)[C@@]2(C)CC(C)(F)C(F)(O2)[C@H](C)[C@@H](O)[C@]1(C)O (stereo partly drawn) [Example 1, 8,9-difluoroerythromycin A 6,9-epoxide] | 0.156 (≈ 0.207 µM) | 0.049 (≈ 0.065 µM) | 2 (≈ 2.65 µM) | 0.052 (≈ 0.069 µM) | 0.1 (≈ 0.133 µM) | 25 (≈ 33.2 µM) | 25 (≈ 33.2 µM) | 13.2 (≈ 17.5 µM) | 0.21 (≈ 0.279 µM) | 3.5 (≈ 4.64 µM) | 26 (≈ 34.5 µM) | 0.011 (≈ 0.0146 µM) | 0.006 (≈ 0.00796 µM) | 0.011 (≈ 0.0146 µM) | 1.25 (≈ 1.66 µM) | 0.83 (≈ 1.1 µM) | 31.2 (≈ 41.5 µM) | 0.078 (≈ 0.103 µM) | 26 (≈ 34.5 µM) | 0.025 (≈ 0.0332 µM) |
